{"source": "patent US10406217B2", "about": "“Antifugetactic agents for the treatment of cancers” (The General Hospital Corporation, priority 2004, dated 2019)", "target": "T1, CXCR2 (Homo sapiens, UniProt P25025)", "T1 construct": "endogenous in cells; host or cells: neutrophils (isolated primary cells)", "T1 sequence (P25025 1-360)": "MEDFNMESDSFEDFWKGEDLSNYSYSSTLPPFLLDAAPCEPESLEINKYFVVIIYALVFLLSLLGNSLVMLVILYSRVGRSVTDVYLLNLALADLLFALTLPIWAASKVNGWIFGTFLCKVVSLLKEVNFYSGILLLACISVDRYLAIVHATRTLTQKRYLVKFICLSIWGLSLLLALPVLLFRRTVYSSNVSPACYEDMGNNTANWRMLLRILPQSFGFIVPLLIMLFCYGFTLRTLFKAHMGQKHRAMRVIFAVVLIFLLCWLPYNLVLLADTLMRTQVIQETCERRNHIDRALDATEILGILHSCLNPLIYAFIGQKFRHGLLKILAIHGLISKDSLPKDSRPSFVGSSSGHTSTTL", "assay": "Sequential calcium flux in neutrophils to IL-8 after SB225002 pretreatment", "format": "cell-based", "details": "1 pM SB225002; IL-8 1.2 μM and 1.2 μM or 600 nM and 1.2 μM; p<0.05", "protocol": "Calcium flux in neutrophils in response to IL-8 was measured as previously described (Mahon M. J., et al. 2004 J Biol Chem 279:23550-8). Briefly, isolated cells (˜10^7/ml) were transferred into a balanced salt solution (127 mM NaCl, 3.8 mM KCl, 1.2 mM KH2PO4, 1.2 mM CaCl2, 0.9 mM MgCl2, 5 mM glucose, and 10 mM HEPES, pH 7.4), incubated for 45 min at room temperature with 1.25 μM Fura-2 acetoxymethyl ester (Molecular Probes, Eugene, Oreg.), washed with the balanced salt solution, and unloaded for 15 min at room temperature. […] Calcium flux in response to indicated concentrations of IL-8 (Akahoshi T., et al. 1994 Lymphokine Cytokine Res 13:113-6) was measured by fluorescence of cells excited at 340 and 380 nm using a PTI Deltascan dual-wavelength fluorimeter (Photon Technologies Incorporated, Lawrenceville, N.J.), observed through a Nikon Diaphot 200 microscope (Melville, N.Y.) and Sensys charge-coupled device camera (Photometrics, Ltd., Tucson, Ariz.), and analyzed using the Poenie-Tsien ratio with Imagemaster 2 software (Photon Technologies Incorporated). Signaling responses to IL-8 at designated concentrations were calibrated against maximal calcium flux as determined by treatment with 5 μM ionomycin (Sigma). CXCR2 expression on neutrophils pre- and post-exposure to 120 nM, 1.2 μM and 2.4 μM IL-8 was determined using PE-labelled anti-CXCR2 IgGl antibody (R & D systems). […]", "data": [{"smiles": "O=C(Nc1ccc([N+](=O)[O-])cc1O)Nc1ccccc1Br", "note": "[SB225002]", "values": [{"measurement": "sequential peaks of calcium flux following IL-8 stimulation", "value": "significantly reduced"}]}]}
